Among the test systems are CAKI-1 renal; COLO 205 colon; HCC-2998 colon; HL-60(TB) leukemia; HOP-62 NSCLC; HOP-92 NSCLC; NCI-H226 lung; OVCAR-5 ovarian; RPMI-8226 leukemia; SK-MEL-5 melanoma.
Holding throughout (assay): growth of human tumour cells (NCI), 48 h

“And” between values parts separate entries of the source, which are not always exact repeats. Equal entries are not always repeated.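 Results reflect a 48-hour exposure of cells in 96-well plates to compound at five concentrations. Abbreviation: GI50, concentration required for 50% inhibition of growth. TGI is the concentration that stops growth completely.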

As for `CN(C)C1C(=O)C(C(N)=O)=C(O)C2(O)C(=O)C3=C(O)c4c(O)cccc4C(C)(O)C3CC12.[Cl][Sb]([Cl])[Cl]` (configuration not stated), the GI50 in the test with CAKI-1 renal is 1.83 µM; in the test on COLO 205 colon it was 2.94 µM; in the test with HCC-2998 colon, 3.57 µM; with HL-60(TB) leukemia, 4.01 µM; in the test with HOP-62 NSCLC it was 4.66 µM; in the test on HOP-92 NSCLC it was 2.56 µM. The GI50 in the test on NCI-H226 lung was 3.33 µM; in the test on OVCAR-5 ovarian, 7.29 µM; in the test on RPMI-8226 leukemia it was 2.41 µM; in the test on SK-MEL-5 melanoma, 1.78 µM. Besides, the TGI in the test with CAKI-1 renal is 4.22 µM; in the test with COLO 205 colon it was 9.17 µM; in the test with HCC-2998 colon, 14.1 µM; in the test with HL-60(TB) leukemia it was 9.9 µM; in the test with HOP-62 NSCLC, 15.5 µM; in the test on HOP-92 NSCLC, 7.61 µM. The TGI was found to be 22 µM in the test with NCI-H226 lung, 26.1 µM in the test with OVCAR-5 ovarian, 5.85 µM in the test with RPMI-8226 leukemia and 4.36 µM in the test with SK-MEL-5 melanoma.

`COc1cccc(-c2cc(=O)c3cc(N4CCN(C)CC4)ccc3[nH]2)c1`: the GI50 in the test with CAKI-1 renal was 0.722 µM; with COLO 205 colon it was 2.02 µM; in the test on HCC-2998 colon, 1.15 µM; with HL-60(TB) leukemia, 0.41 µM; in the test on HOP-62 NSCLC, 10.7 µM; with HOP-92 NSCLC it was 3.1 µM. Further, the GI50 in the test with NCI-H226 lung is 2.83 µM; in the test with OVCAR-5 ovarian, 6.24 µM; with RPMI-8226 leukemia, 1.93 µM; with SK-MEL-5 melanoma, 0.766 µM. Besides, the TGI with CAKI-1 renal is over 100 µM; in the test on COLO 205 colon it was 3.55 µM and 10.7 µM; in the test on HCC-2998 colon, 4.71 µM and 3.88 µM; with HL-60(TB) leukemia it was 3.04 µM and 1.23 µM; with HOP-62 NSCLC it was over 100 µM; in the test with OVCAR-5 ovarian, over 100 µM. The compound also displayed a TGI in the test with RPMI-8226 leukemia of 6.11 µM.

Source of the values: PubChem BioAssay (NCI).
